Laboratory results: patent US20230290452A1, “Electronic Health Record (EHR)-Based Classifier for Acute Respiratory Distress Syndrome (ARDS) Subtyping” (Endpoint Health Inc., priority 2020, published 2023)

Experiments:
Assay type in all cases: in vivo, human
[1] = tested on: ARDS patients; assay: eICU (v1) dataset, statin intervention by Model C.4 subphenotype; design: Alive: unit not given here; conditions: for Alive / Dead / Mortality: no consideration to number doses and minimum dose size; for Mortality Rate: admitted with drug or initiated during ICU stay
From the text: The dataset from the eICU (v1) dataset was used for analysis. The intervention of interest was statins.
The individual statins were then examined with no consideration to number of doses and minimum dose size. Using this methodology, there were several differential responses identified (bolded and underlined cells as shown below in Table 81).

[2] = tested on: ARDS patients; assay: eICU data filtered for patients without prior indication for statin use, statin intervention by subphenotype
From the text: This included patients with history of angina, congestive heart failure, coronary artery bypass grafting, multiple coronary artery bypass, hypertension requiring treatment, previous acute myocardial infarction, peripheral vascular disease, previous coronary intervention procedure, stroke, and/or transient ischemic attack.

[3] = tested on: ARDS patients; assay: eICU (v1) dataset, statin intervention by Model C.4 subphenotype; design: Alive: unit not given here
[4] = tested on: ARDS patients; assay: ARMA-KARMA-LARMA study dataset, lisofylline and ketoconazole vs placebo by subphenotype; conditions: for Mortality: ARMA-KARMA-LARMA; for Dead 90: 0 0, Frequency / Dead 90: 0 0, Percent / Dead 90: 1 0, Frequency / Dead 90: 1 0, Percent: Patients administered lisofylline (title); for Dead 90: 1 0, Percent: mortality
From the text: The dataset from the ARMA-KARMA-LARMA study was used for analysis. Interventions in the study included lisofylline and ketoconazole.

[5] = admitted with drug or initiated during ICU stay, All Patients
[6] = admitted with drug or initiated during ICU stay, Subphenotype A
[7] = admitted with drug or initiated during ICU stay, Subphenotype B
[8] = initiated during ICU stay, All Patients
[9] = initiated during ICU stay, Subphenotype A
[10] = initiated during ICU stay, Subphenotype B
[11] = on drug at time of ICU admit, All Patients
[12] = on drug at time of ICU admit, Subphenotype A
[13] = on drug at time of ICU admit, Subphenotype B

Compound `CC[C@H](C)C(=O)O[C@H]1C[C@@H](C)C=C2C=C[C@H](C)[C@H](CC[C@@H]3C[C@@H](O)CC(=O)O3)[C@H]21` [Lovastatin] has an Alive ([1]; All Patients) of 12, a Dead ([1]; All Patients) of 1 and a Mortality ([1]; All Patients) of 8%. The Alive ([1]; Subphenotype A) was 10, the Dead ([1]; Subphenotype A) was 0 and the Mortality ([1]; Subphenotype A) was 0%. It also gave an Alive ([1]; Subphenotype B) of 2, a Dead ([1]; Subphenotype B) of 1 and a Mortality ([1]; Subphenotype B) of 33%.

Compound `CC[C@H](C)C(=O)O[C@H]1C[C@H](O)C=C2C=C[C@H](C)[C@H](CC[C@@H](O)C[C@@H](O)CC(=O)O)[C@H]21` [Pravastatin] has an Alive ([1]; All Patients) of 29, a Dead ([1]; All Patients) of 6 and a Mortality ([1]; All Patients) of 17%. The Alive ([1]; Subphenotype A) was 20, the Dead ([1]; Subphenotype A) was 4 and the Mortality ([1]; Subphenotype A) was 17%. The Alive ([1]; Subphenotype B) was 9, the Dead ([1]; Subphenotype B) was 2 and the Mortality ([1]; Subphenotype B) was 18%.

`CC(C)c1nc(N(C)S(C)(=O)=O)nc(-c2ccc(F)cc2)c1/C=C/[C@@H](O)C[C@@H](O)CC(=O)O` [Rosuvastatin] showed an Alive ([1]; All Patients) of 32, a Dead ([1]; All Patients) of 4 and a Mortality ([1]; All Patients) of 11%. The Alive ([1]; Subphenotype A) was 23, the Dead ([1]; Subphenotype A) was 2 and the Mortality ([1]; Subphenotype A) was 8%. For the same compound, the Alive ([1]; Subphenotype B) was 9, the Dead ([1]; Subphenotype B) was 2 and the Mortality ([1]; Subphenotype B) was 18%.

With `CC(C)c1c(C(=O)Nc2ccccc2)c(-c2ccccc2)c(-c2ccc(F)cc2)n1CC[C@@H](O)C[C@@H](O)CC(=O)O` [atorvastatin] the “Mortality Rate” value ([1]; All Patients) was 15.70, the Alive ([1]; All Patients) was 289 and the Dead ([1]; All Patients) was 54. It also gave a Mortality ([1]; All Patients) of 16%, an Alive ([1]; Subphenotype A) of 209 and a Dead ([1]; Subphenotype A) of 26. It also gave a Mortality ([1]; Subphenotype A) of 11%, an Alive ([1]; Subphenotype B) of 80 and a Dead ([1]; Subphenotype B) of 28. The Mortality ([1]; Subphenotype B) was 26%, the Alive [2, 5] was 51 and the Dead [2, 5] was 12. The “Mortality Rate” value [2, 5] was 19.05, the Alive [2, 6] was 40 and the Dead [2, 6] was 6. The “Mortality Rate” value [2, 6] was 13.04, the Alive [2, 7] was 11 and the Dead [2, 7] was 6. The “Mortality Rate” value [2, 7] was 35.29, the Alive [2, 8] was 42 and the Dead [2, 8] was 9. The “Mortality Rate” value [2, 8] was 17.65, the Alive [2, 9] was 34 and the Dead [2, 9] was 5. The “Mortality Rate” value [2, 9] was 12.82, the Alive [2, 10] was 8 and the Dead [2, 10] was 4. For the same compound, the “Mortality Rate” value [2, 10] was 33.33, the Alive [2, 11] was 9 and the Dead [2, 11] was 3. The “Mortality Rate” value [2, 11] was 25, the Alive [2, 12] was 6 and the Dead [2, 12] was 1. For the same compound, the “Mortality Rate” value [2, 12] was 14.29, the Alive [2, 13] was 3 and the Dead [2, 13] was 2. The “Mortality Rate” value [2, 13] was 40, the Alive [3, 5] was 290 and the Dead [3, 5] was 54. For the same compound, the Alive [3, 6] was 209, the Dead [3, 6] was 26 and the “Mortality Rate” value [3, 6] was 11.06. The Alive [3, 7] was 81, the Dead [3, 7] was 28 and the “Mortality Rate” value [3, 7] was 25.69. For the same compound, the Alive [3, 8] was 210, the Dead [3, 8] was 40 and the “Mortality Rate” value [3, 8] was 16. For the same compound, the Alive [3, 9] was 149, the Dead [3, 9] was 19 and the “Mortality Rate” value [3, 9] was 11.31. The Alive [3, 10] was 61, the Dead [3, 10] was 21 and the “Mortality Rate” value [3, 10] was 25.61. The Alive [3, 11] was 80, the Dead [3, 11] was 14 and the “Mortality Rate” value [3, 11] was 14.89. The Alive [3, 12] was 60, the Dead [3, 12] was 7 and the “Mortality Rate” value [3, 12] was 10.45. For the same compound, the Alive [3, 13] was 20, the Dead [3, 13] was 7 and the “Mortality Rate” value [3, 13] was 25.93.

`C[C@@H](O)CCCCn1c(=O)c2c(ncn2C)n(C)c1=O` [lisofylline] was tested, and the Mortality ([4]; Subphenotype A, patients who received lisofylline) was 31.4%, the Mortality ([4]; Subphenotype B, patients who got lisofylline) was 40% and the “Dead 90: 0 0, Frequency” value ([4]; Subphenotype A) was 36. For the same compound, the “Dead 90: 0 0, Percent” value ([4]; Subphenotype A) was 72%, the “Dead 90: 1 0, Frequency” value ([4]; Subphenotype A) was 14 and the “Dead 90: 1 0, Percent” value ([4]; Subphenotype A) was 28%. The “Dead 90: 0 0, Frequency” value ([4]; Subphenotype B) was 51, the “Dead 90: 0 0, Percent” value ([4]; Subphenotype B) was 72.86% and the “Dead 90: 1 0, Frequency” value ([4]; Subphenotype B) was 19. The “Dead 90: 1 0, Percent” value ([4]; Subphenotype B) was 27.14%.

`CCC(C)(C)C(=O)O[C@H]1C[C@@H](C)C=C2C=C[C@H](C)[C@H](CC[C@@H]3C[C@@H](O)CC(=O)O3)[C@H]21` [simvastatin] was tested, and the “Mortality Rate” value ([1]; All Patients) was 12.87, the Alive ([1]; All Patients) was 167 and the Dead ([1]; All Patients) was 26. It also gave a Mortality ([1]; All Patients) of 13%, an Alive ([1]; Subphenotype A) of 122 and a Dead ([1]; Subphenotype A) of 10. For the same compound, the Mortality ([1]; Subphenotype A) was 8%, the Alive ([1]; Subphenotype B) was 45 and the Dead ([1]; Subphenotype B) was 16. The Mortality ([1]; Subphenotype B) was 26%, the Alive [2, 5] was 23 and the Dead [2, 5] was 5. The “Mortality Rate” value [2, 5] was 17.86, the Alive [2, 6] was 15 and the Dead [2, 6] was 1. The “Mortality Rate” value [2, 6] was 6.25, the Alive [2, 7] was 8 and the Dead [2, 7] was 4. For the same compound, the “Mortality Rate” value [2, 7] was 33.33, the Alive [2, 8] was 6 and the Dead [2, 8] was 4. The “Mortality Rate” value [2, 8] was 40, the Alive [2, 9] was 5 and the Dead [2, 9] was 1. For the same compound, the “Mortality Rate” value [2, 9] was 16.67, the Alive [2, 10] was 1 and the Dead [2, 10] was 3. For the same compound, the “Mortality Rate” value [2, 10] was 75, the Alive [2, 11] was 17 and the Dead [2, 11] was 1. For the same compound, the “Mortality Rate” value [2, 11] was 5.56, the Alive [2, 12] was 10 and the Dead [2, 12] was 0. The “Mortality Rate” value [2, 12] was 0, the Alive [2, 13] was 7 and the Dead [2, 13] was 1. For the same compound, the “Mortality Rate” value [2, 13] was 12.5, the Alive [3, 5] was 176 and the Dead [3, 5] was 26. The Alive [3, 6] was 126, the Dead [3, 6] was 10 and the “Mortality Rate” value [3, 6] was 7.35. The Alive [3, 7] was 50, the Dead [3, 7] was 16 and the “Mortality Rate” value [3, 7] was 24.24. The Alive [3, 8] was 89, the Dead [3, 8] was 15 and the “Mortality Rate” value [3, 8] was 14.42. The Alive [3, 9] was 63, the Dead [3, 9] was 6 and the “Mortality Rate” value [3, 9] was 8.70. For the same compound, the Alive [3, 10] was 26, the Dead [3, 10] was 9 and the “Mortality Rate” value [3, 10] was 25.71. For the same compound, the Alive [3, 11] was 87, the Dead [3, 11] was 11 and the “Mortality Rate” value [3, 11] was 11.22. For the same compound, the Alive [3, 12] was 63, the Dead [3, 12] was 4 and the “Mortality Rate” value [3, 12] was 5.97. For the same compound, the Alive [3, 13] was 24, the Dead [3, 13] was 7 and the “Mortality Rate” value [3, 13] was 22.58.
